Assays:
[1] = test system: bone marrow cells undergoing osteogenic differentiation; test: Rainbow bead cell-binding assay; assay type: cell-based, mouse; conditions: cells cultured in osteogenic medium for 7 days, incubated with rainbow beads
Method: Mouse MSCs were purchased from Invitrogen (Cat#S1502-100), cultured in osteogenic medium for 7 days and incubated with rainbow beads for one hour. […] Original magnification 10× on the right and 20× on the left of the top panel.
A new color-encoding method that facilitates high-throughput screening of OBOC combinatorial libraries was developed. This method differs from the traditional methods used to monitor integrin expressions in the MSCs, i.e., the use of antibody-based fluorescence-activated cell sorting (FACS) or immunoblotting. In the present method, polymer beads displaying chemical compounds or families of compounds were stained with oil-based organic dyes that are used as coding tags. […] These rainbow beads were prepared in a multiplex manner such that each ligand reacted to one or a series of integrins that were coded one color, See FIG. 7 (Luo, J., et al., J Comb Chem, 2008, 10(4): p. 599-604). This rainbow bead technique was then applied to determine the integrin profile on the cell surfaces.
In FIG. 7, bone marrow cells were cultured in osteogenic medium for 7 days and incubated with rainbow beads. The purple beads that coded with LLP2A, the ligand with high affinity and specificity against α4β1, were covered with layers of cells identified by green arrows. […]

C57BL/6 mice = test: Guiding GFP-labeled mouse MSCs to bone; assay type: in vivo; conditions: for osteocalcin levels: 0.9 nmol/mouse I.P. one hour after GFP-MSC I.V.
Method: LLP2A-Ale or LLP2A-Ale (1) were dissolved in 0.9% normal saline and injected I.P. to the mice one hour after MSC at a final solution of 0.9 nmol/mouse. Mice were sacrificed either at 3 days or 3 weeks. Osteocalcin, a bone formation marker, was measured at both 3 days and 3 weeks post-treatments. The lumbar vertebral bodies from the 3-day treatment groups were frozen and sectioned with cryostat. The sections were then stained with anti-GFP antibody. The transplanted MSCs were stained in brown.

MSC = MSC osteoblast maturation, function, migration and lineage potentials; assay type: cell-based
[2] = test system: 10-week-old ovariectomized (OVX) mice; test: Ovariectomized (OVX) mouse model; assay type: in vivo
From the text: FIG. 21 depicts histomorphometric analyses of the 5th lumbar vertebral bodies after LLP2A-Ale treatment of 10-week-old ovariectomized (OVX) mice, showing increases in osteoblast numbers, activities and bone formation rate/bone surface (BFR/BS) post-treatment. Analyses included trabecular bone area (%), osteoblast surface (Ob/BS), mineralizing surface (MS/BS) activities and BFR/BS (P<0.05).
Representative fluorescent images from the trabecular bone at the 5th LVB (Top panel: white arrowheads illustrate osteoblasts; Bottom panel: yellow arrows illustrate double labeled trabecular bone surfaces).
FIG. 23 depicts histomorphometry analyses of the right mid-femurs included bone formation at the endosteal (Ec) or periosteal (Ps.) bone surfaces, and cortical bone thickness of 10-week-old ovariectomized (OVX) mice. […] Three-point bending was performed on left femurs to obtain maximum stress of the femurs.
Short yellow arrows illustrated double labeled endocortical bone surfaces. (a, p<0.05 versus Sham; b, P<0.05 vs. OVX+PBS, c, P<0.05 vs. OVX+LLP2A; d, P<0.05 vs. OVX+Ale. Data are represented as Mean±SD).

Cc1ccccc1NC(=O)Nc1ccc(CC(=O)N[C@@H](CCCCNC(=O)/C=C/c2cccnc2)C(=O)N[C@@H](CCCC(=O)O)C(=O)NC2(C(=O)NCCOCCOCCNC(=O)CCC(=O)NCCOCCOCCNC(=O)CCC(=O)N[C@@H](CCCCNC(=O)[C@H](N)CSC3CC(=O)N(CC4CCC(C(=O)NCCCC(O)(P(=O)(O)O)P(=O)(O)O)CC4)C3=O)C(N)=O)CCCCC2)cc1 (stereo partly shown) [LLP2A-Ale, LLP2A-Alendronate]
cell binding to ligand-coded rainbow beads (affinity) [1]: high affinity | location of transplanted MSCs (anti-GFP staining) (C57BL/6 mice; lumbar vertebral bodies, three days): observed within bone marrow and adjacent to the trabecular bone surfaces | osteocalcin levels (C57BL/6 mice; three days): significantly increased | osteocalcin levels (C57BL/6 mice; three weeks): significantly increased | MSC chondrogenic or adipogenic potentials (MSC): without affecting | MSC osteoblast maturation, function and migration (MSC): increases | osteoblast numbers, activities and bone formation rate/bone surface (BFR/BS) ([2]; 5th lumbar vertebral bodies): increases | maximum stress ([2]; femur three-point bending, single IV injection of conjugate or four weeks of PTH): not significantly altered | endocortical bone formation ([2]; mid-femur, vs OVX): increases | cortical bone thickness ([2]; mid-femur, single IV injection of conjugate or four weeks of PTH): not significantly altered

Source: patent US9119884B2, “LLP2A-bisphosphonate conjugates for osteoporosis treatment” (The Regents of the University of California, priority 2010, dated 2015)
